In patent US20090162421A1, “DRUGS AS WELL AS THEIR PRODUCTION AND USE IN THE TREATMENT OF PAIN-ASSOCIATED NEUROPATHIES” (PAZ Arzneimittel-Entwicklungsgesellschaft mbH, priority 2007, published 2009):

Legend:
[1] = system: spared nerve injury model of peripheral neuropathic pain; assay: Spared Nerve Injury model (SNI model), treatment day 10 to 21 postoperatively (Example 1); assay type: in vivo, rats; settings: for reduction of allodynia: day 10 to 21 postoperatively
Description: (§1) The Chronic Constriction Injury model (CCI model) [Bennet G J, Xie Y K: A peripheral mononeuropathy in rat that produces disorders of pain sensation like those seen in man. Pain 1988, 33:87-107] and the Spared Nerve Injury model (SNI model) [Decosterd I, Woolf C J: Spared Nerve injury: an animal model of persistent peripheral neuropathic pain. Pain 2000, 87:149-158] were used as animal models that show essential elements of the clinical pain syndromes in the presence of neuropathies. In both models, the animals sustain defined nerve damage by surgical means. The pain behavior of the animals can be used to quantitatively measure the efficacy of substances in pain-associated neuropathies. The investigations were carried out on rats according to the published models. […] The same is not true of most other species of laboratory animals.
(§2) In a first series of experiments, the animals sustained a nerve lesion by surgical means according to the SNI model and according to the CCI model. From day 10 to day 21 postoperatively, groups of 12 animals each received intraperitoneal administrations of the test substances twice daily. In tests according to the SNI model, in each application, 2.5, 4.5 or 9 mg tarenflurbil (referred to as RF2.5, RF4.5, and RF9), 4.5 mg S-flurbiprofen (SF4.5), pure vehicle (vehicle—as control) or 25 mg gabapentin (Gaba25—as reference substance), each per kg of body weight, were administered. The behavioral parameters that are typical of pain-associated neuropathies were measured, namely mechanical allodynia using Frey's aestesiometer, cold allodynia using the acetone test, and cold hyperalgesia using the cold plate at 2° C. In tests according to the CCI model, 4.5 or 9 mg/kg body weight of tarenflurbil (RF4.5 and RF9), 9 mg/kg body weight S-flurbiprofen (SF9) or vehicle (vehicle) were administered per group. As before, mechanical/static allodynia, cold allodynia and cold hyperalgesia were measured using Frey's hair test, the acetone test, and the cold plate at 2° C., respectively.

[2] = system: chronic constriction injury model of peripheral neuropathic pain; assay: Chronic Constriction Injury model (CCI model), treatment day 10 to 21 postoperatively (Example 1); assay type: in vivo; settings: rats
Description: as §1, §2

[3] = design: species or system rats; settings: rat, in vivo, ip, 4.5 mg/kg
[4] = system: spared nerve injury model of peripheral neuropathic pain; assay: SNI model, treatment from the first postoperative day for two weeks (Example 2); assay type: in vivo, rats
Procedure: In another series of experiments, animals having sustained nerve damage according to the SNI model were treated twice daily with intraperitoneal doses of 9 mg/kg body weight tarenflurbil or vehicle from the first postoperative day and for a period of two weeks. Both the mechanical dynamic allodynia (on the ipsilateral and on the contralateral side) and the cold allodynia (ipsilateral only) were measured by means of Frey's aesthesiometer and the cold plate at 10° C., respectively.

[5] = system: rats that had not sustained damage; assay: Single dose in rats that had not sustained damage (Example 3); assay type: in vivo; settings: undamaged rats, single i.p. dose of 9 mg/kg, up to 6 hours after application
Procedure: For qualification of the series' of experiments mentioned above, a single dose of 9 mg/kg body weight tarenflurbil (RF9) or vehicle (vehicle) was applied intraperitoneally in another series of experiments on rats that had not sustained damage and the mechanical allodynia and the heat sensitivity were measured for up to 6 hours after the application using Frey's aesthesiometer and the Hargreaves model, respectively. […] This means that the effects measured for tarenflurbil in Examples 1 and 2 are exclusively related to the effect in pain-associated neuropathies.

[6] = humans; cited from earlier work
[7] = rats; cited from earlier work
[8] = SNI model, rats, 4.5 mg/kg twice daily i.p.
[9] = summary statement for the pharmacological models

SMILES | effect on allodynia compared with tarenflurbil ([1]; SNI model, rats, 25 mg/kg twice daily i.p., positive control) | reduction of allodynia [1, 8] | effect in models of pain-associated neuropathies [1, 9] | reduction of allodynia ([2]; 9 mg/kg twice daily i.p.) | gastrointestinal bleeding [3] | reduction of allodynia ([1]; SNI model, rats, 9 mg/kg twice daily i.p.) | efficacy relative to reference substance gabapentin ([1]; if dosed sufficiently, vs 25 mg/kg body weight gabapentin) | effect in models of pain-associated neuropathies (dose dependence) [1, 9] | reduction of allodynia ([2]; 4.5 mg/kg twice daily i.p.) | mechanical allodynia, contralateral side, vs vehicle ([4]; 9 mg/kg twice daily i.p. from first postoperative day for two weeks) | mechanical allodynia, ipsilateral side, vs vehicle ([4]; 9 mg/kg twice daily i.p. from first postoperative day, entire treatment period of two weeks, Frey's aesthesiometer) | cold allodynia, ipsilateral side, vs vehicle ([4]; 9 mg/kg twice daily i.p. from first postoperative day, entire treatment period of two weeks, cold plate at 10° C.) | time until pain-relieving effect falls to pain intensity of the vehicle group ([4]; after completion of two weeks of 9 mg/kg twice daily i.p.) | mechanical allodynia vs vehicle ([5]; Frey's aesthesiometer) | heat sensitivity vs vehicle ([5]; Hargreaves model) | inversion of the R-form to the S-form under in vivo conditions [6] | inversion of tarenflurbil to S-flurbiprofen [7]
NCC1(CC(=O)O)CCCCC1 [Gabapentin, gabapentin, reference compound] | no significant difference from tarenflurbil |  |  |  |  |  |  |  |  |  |  |  |  |  |  |  | 
C[C@H](C(=O)O)c1ccc(-c2ccccc2)c(F)c1 [S-flurbiprofen, reference compound] |  | no significant effect | does not show a significant effect | no significant effect | gastrointestinal bleeding in some animals |  |  |  |  |  |  |  |  |  |  |  | 
C[C@@H](C(=O)O)c1ccc(-c2ccccc2)c(F)c1 [tarenflurbil] |  | significant reduction |  | significant reduction |  | significant reduction | in the range of the efficacy of 25 mg/kg body weight gabapentin | dose-dependent effect | significant reduction | no difference | significantly different effect from vehicle | significantly different effect from vehicle | eight days after the end of treatment | no significant differences | no significant differences | no or no more than extremely minor inversion | basically do not invert
